The source of these data is patent US20040138258A1, “Inhibitors of 11beta-hydroxysteroid dehydrogenase and uses therefor” (priority 2002, published 2004).

For this assay, the target named is T1, rat liver 11β HSD (Rattus norvegicus, UniProt P16232).
T1 construct: for the 11β HSDs isolated from rat liver; from tissue; host or cells: rat liver
The assay is described as follows: rat liver 11β HSD oxidative activity, corticosterone utilization (Lineweaver-Burk kinetics). Conditions: for inhibition of the enzyme: purified rat liver 11β HSD, 1,2,6,7-3H-corticosterone; for Ki: purified rat liver 11β HSD, oxidative activity, NADP+, 1,2,6,7-3H-corticosterone, with regard to the glucocorticoid substrate, read-out: Kis; for mode of inhibition: with regard to the glucocorticoid substrate (corticosterone), Lineweaver-Burk plot, rat liver 11β HSD oxidative activity. In kind it is biochemical. Here is the method:
Computational analyses were performed using the latest version of MacSpartan Plus and MSI InsightII. Experimental analysis employed the rat enzyme as described (Monder et al., BBA […] (1991) and references therein). Kinetic data were analyzed in Excel and plotted in CricketGraph.
The structural similarity between GCs like cortisol and the monoterpenes with the conformation of neomenthol (FIG. 1) was confirmed by the computational analysis of their steric and electronic similarities, as summarized in FIGS. 2 and 3. Only neomenthol precisely mimicked the region of GCs around C11 that contains the oxygen atom subjected to the redox reactions mediated by the 11β HSDs. Consequently, only neomenthol should bind to such an enzyme like its physiological substrate, competing with said substrate for the active site of said enzyme. This computation-based prediction was confirmed experimentally, as shown in FIGS. 4 and 5 for the 11β HSDs isolated from rat liver. The purified rat liver 11β HSD, when used in vitro, utilizes NADP+ and oxidizes cortisol and corticosterone in an ordered sequential bireactant mechanism (Monder et al., Biochim. Biophys. Acta 1115:23-29 (1991) and references therein). […] More importantly, the results identified the conformation of neomenthol as a lead for the rational optimization of 11β HSD inhibitors, applicable to both the in vivo oxidizing activity of 11β HSD2 and the in vivo reducing activity of 11β HSD1, as shown in FIG. 6. Using the same computational algorithms that correctly predicted the competitive mode of inhibitory activity for neomenthol, and the lack thereof for isomenthol, molecules were assembled in silico and evaluated for their computed physicochemical characteristics relevant for the desired inhibition of 11β HSD activity. Originating from the lead compounds (FIG. 6), the computational analysis converged on several optimized structures that contained combinations of physicochemical and steric elements prerequisite for 11β HSD inhibition. These structures are identified in FIGS. 7-10. FIG. 7 details for neomenthol the findings obtained with this approach. FIG. 8 details the findings for a representative compound in which, among other modifications, a structure equivalent to the B ring of cortisol has been deleted. FIG. 9 details the findings for a representative compound in which, among other modifications, a ring has been added to the structure equivalent to the D ring of cortisol. FIG. 10 details the findings for a representative compound in which, among other modifications, a structure equivalent to the D ring of cortisol has been deleted. As originally proposed for neomenthol (FIG. 11), these structures are sufficiently isosteric and isoelectronic with cortisol to displace it from its plasma binding proteins, in this way increasing the bioavailable, free cortisol in a living system, e.g. after topical administration to skin only in skin blood vessels.

T1 sequence (P16232 whole entry): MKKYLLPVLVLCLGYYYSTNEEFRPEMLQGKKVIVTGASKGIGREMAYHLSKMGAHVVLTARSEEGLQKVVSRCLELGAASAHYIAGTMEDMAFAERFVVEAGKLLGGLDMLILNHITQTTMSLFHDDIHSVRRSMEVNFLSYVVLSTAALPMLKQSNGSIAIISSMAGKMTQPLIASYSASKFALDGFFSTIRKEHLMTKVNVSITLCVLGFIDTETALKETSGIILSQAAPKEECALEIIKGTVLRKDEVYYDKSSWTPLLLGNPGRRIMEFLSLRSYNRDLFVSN

In the case of `CC(C)[C@H]1CC[C@@H](C)C[C@@H]1O` [isomenthol, (1S, 2R, 5R)-isomenthol], the “inhibition of the enzyme” value is on record as “inhibited the enzyme”, the Ki was 71 µM and the mode of inhibition entry is recorded as “non-competitive”.

Regarding `CC(C)[C@@H]1CC[C@@H](C)C[C@@H]1O` [neomenthol, (1S, 2S, 5R)-neomenthol], the “inhibition of the enzyme” value was “inhibited the enzyme”, the Ki is 35 µM and the mode of inhibition result is on record as “competitive”.
